# Patent US12285416B2 (priority 2017, dated 2025)
# Several values for one entry are separate records, joined by “and”; a condition that tells them apart may be missing. Equal entries are not always repeated. Where two headings read alike, the source gives them in different places.
# How the values were obtained:
# [1] = tested on: rat left phrenic nerve-diaphragm preparation
# [2] = tested on: rat left phrenic nerve-diaphragm preparation; remark: listed apart in the source
# [3] = tested on: rat left phrenic nerve-diaphragm preparation; remark: listed apart in the source
# [4] = tested on: anesthetized rabbit; conditions: in vivo, iv
# [5] = tested on: anesthetized/ventilated rat; conditions: in vivo
molecule,measurement,setting,value
"C[C@@H]1O[C@H](C[N+](C)(C)C)C[C@H]1O (racemic) [Muscarine, (±)-Muscarine chloride hydrate]",effect on force and maximal rate of change,[1],"minimal or slight reduction of force, and maximal rate of change"
same,"Contraction Amplitude, Raw Values",[1]; hydrate,14.5 ± 1.4 g and 13.5 ± 1.2 g and 13.3 ± 1.2 g and 13.5 ± 1.3 g
same,"Max Rate of Change, Raw Values",[1]; hydrate,341 ± 45 g/s and 314 ± 45 g/s and 321 ± 41 g/s and 329 ± 39 g/s
CN(C)C(=O)Oc1cccc([N+](C)(C)C)c1 [Neostigmine],"Contraction Amplitude, Raw Values",[2],6.3 ± 0.5 g
same,"Contraction Amplitude, Δ from 50% reduction with MMB4",[2],0.6 g and 0.6 ± 0.1 g
same,"Max Rate of Change, Raw Values",[2],153 ± 12 g/s
same,"Max Rate of Change, Δ from 50% reduction with MMB4",[2],20 ± 4 g/s
same,"Contraction Amplitude, Neostigmine with d-tubocurarine Raw Values",[3],5.9 ± 0.8 g and 5.2 ± 0.6 g and 4.7 ± 1.2 g
same,"Max Rate of Change, Neostigmine with d-tubocurarine Raw Values",[3],141 ± 30 g/s and 131 ± 21 g/s and 108 ± 39 g/s
"CN1CCC[C@H]1c1cccnc1 [Nicotine, (−)-Nicotine detartrate]","Contraction Amplitude, Raw Values",[1],10.8 ± 3.2 g and 9.7 ± 2.6 g
same,"Max Rate of Change, Raw Values",[1],229 ± 97 g/s and 225 ± 102 g/s and 201 ± 94 g/s
same,effect on contraction,[1],depressed contraction
same,effect on contraction and maximal rate of change,[1],positive effect
CS(=O)(=O)[O-].[Na+] [Sodium Methanesulfonate],"Contraction Amplitude, Raw Values",[1],9.1 ± 0.8 g and 8.9 ± 0.8 g and 8.6 ± 0.8 g and 8.2 ± 0.7 g
same,"Max Rate of Change, Raw Values",[1],211 ± 48 g/s and 214 ± 48 g/s and 210 ± 48 g/s and 197 ± 45 g/s
same,effect on function,[1],minimal effect on function
"COc1cc2c3cc1Oc1cc(ccc1O)C[C@@H]1c4c(cc(OC)c(O)c4Oc4ccc(cc4)C[C@@H]3N(C)CC2)CC[N+]1(C)C [d-tubocurarine, d-tubocurarine chloride hydrate]","Contraction Amplitude, Raw Values",[3],5.2 ± 0.8 g
same,"Max Rate of Change, Raw Values",[3],106 ± 22 g/s
same,"Contraction Amplitude, d-tubocurarine Raw Values",[3]; hydrate,5.2 ± 0.9 g and 4.3 ± 0.5 g and 4.4 ± 1.1 g
same,"Max Rate of Change, d-tubocurarine Raw Values",[3]; hydrate,119 ± 31 g/s and 101 ± 20 g/s and 101 ± 35 g/s
Cisatracurium (Besilate salt),Diaphragmatic Force,[4],5.4 ± 1.0 g
same,Diaphragmatic Force relative change from baseline,[4],−77 ± 6%
same,HR,[4],282 ± 7 bpm
same,HR relative change from baseline,[4],0 ± 1%
same,ITP,[4],15.1 ± 0.6 mmHg
same,ITP relative change from baseline,[4],7 ± 4%
same,LVEDP,[4],7.6 ± 1.1 mmHg
same,LVEDP relative change from baseline,[4],17 ± 8%
same,LVdP/dtmax,[4],2760 ± 246 mmHg/s
same,LVdP/dtmax relative change from baseline,[4],−6 ± 3%
same,MAP,[4],63 ± 6 mmHg
same,MAP relative change from baseline,[4],−3 ± 3%
same,Skeletal Force,[4],1.1 ± 0.5 g
same,Skeletal Force relative change from baseline,[4],−86 ± 5%
same,tau,[4],8.7 ± 0.2 ms
same,tau relative change from baseline,[4],0 ± 1%
same,effect on cardiovascular function,[4]; 0.1 mg/kg,negligible effects in cardiovascular function
same,effect on skeletal and diaphragmatic contractions,[4]; 0.1 mg/kg,reversible inhibition of skeletal and diaphragmatic contractions
pralidoxime chloride [2-PAM],effect on diaphragmatic function,[5],depression
